Test results: patent US20240201589A1, “ACTINIC RAY-SENSITIVE OR RADIATION-SENSITIVE RESIN COMPOSITION, ACTINIC RAY-SENSITIVE OR RADIATION-SENSITIVE FILM, PATTERN FORMING METHOD, AND METHOD FOR MANUFACTURING ELECTRONIC DEVICE” (FUJIFILM Corporation, priority 2021, published 2024)

experiment: Acid dissociation constants pKa of acid generated from compound (I), by computation (ACD/Labs software package 1; Gaussian 16 DFT if not computable); settings: Table 1; values equal the difference between maximum and minimum pKa of the generated acid groups
Excerpt: In the present specification, the acid dissociation constant (pKa) is the pKa in an aqueous solution and is specifically a value determined by computation using the following software package 1 based on a Hammett substituent constant and a database of known literature values.
All pKa values in the present specification are values determined by computation using this software package.
Software package 1: Advanced Chemistry Development (ACD/Labs) Software V 8.14 for Solaris (1994-2007 ACD/Labs).
In the present specification, the pKa is a value determined by computation using the software package 1 based on the Hammett substituent constant and the database of known literature values as described above. When the pKa cannot be computed using this method, a value obtained using Gaussian 16 based on the DFT (density functional theory) is used.
The pKa values of the at least two acid groups generated from the compound (I) upon irradiation with actinic rays or radiation are determined using the following method.
(1) Suppose that all the acid anionic groups included in the compound (I) are replaced with their corresponding acid groups to generate an acid group-containing compound (PIA). In this case, there are two cases depending on the structure of the compound (I). In one case (case A), the acid group-containing compound (PIA) generated is a single compound (single molecule) having a plurality of acid groups. In the other case (case B), a plurality of compounds (plurality of molecules) each having at least one acid group are formed.
(2) The case A (its one specific example is mode 1 described below) will be described. A compound in which, among the plurality of acid groups included in the acid group-containing compound (PIA), an acid group having the smallest acid dissociation constant is reconverted to the corresponding acid anionic group is defined as an acid group-containing compound (PIA-1). The pKa when the acid group-containing compound (PIA) is converted to the acid group-containing compound (PIA-1) is determined and used as the pKa of the acid group reconverted to the acid anionic group. Next, a compound in which, among one or the plurality of acid groups included in the acid group-containing compound (PIA-1), an acid group having the smallest acid dissociation constant (when only one acid group is present, this acid group is used) is reconverted to the corresponding acid anionic group is defined as an acid group-containing compound (PIA-2). The pKa when the acid group-containing compound (PIA-1) is converted to the acid group-containing compound (PIA-2) is determined and used as the pKa of the acid group reconverted to the acid anionic group. This procedure is repeated until the resulting compound has no acid group, and the pKa values of the plurality of acid groups included in the acid group-containing compound (PIA) are thereby determined.
In the above method, when the number of acid groups having the smallest acid dissociation constant among the plurality of acid groups is two or more, one of these acid groups is arbitrarily selected, and the pKa when the compound is converted to a compound (PIA #) obtained by reconverting the selected acid group to its corresponding acid anionic group is determined. As for the pKa value of each of the remaining (unselected) acid groups, the pKa when the compound (PIA #) is converted to a “compound (PIA ##) obtained by reconverting an acid group newly selected from the remaining acid groups to its corresponding acid anionic group” is determined and used.
For a compound having one acid group, the pKa when the acid group in this compound is reconverted to the corresponding acid anionic group is used as the pKa of the acid group. When the compound having at least one acid group is a compound having a plurality of acid groups, the pKa of each acid group is determined using the method described in (2) above. […]

| Compound | pKa |
| --- | --- |
| O=C(NC(=O)C(F)(F)S(=O)(=O)[O-])c1ccc([S+](c2ccccc2)c2ccccc2)cc1 [Compound X-1] | 9.96 |
| O=C(NC(C(F)(F)F)C(F)(F)S(=O)(=O)[O-])c1ccc([S+](c2ccccc2)c2ccccc2S(=O)(=O)O)cc1 (stereo not shown) [Compound X-3] | 1.24 |
| O=S(=O)(O)c1ccc([S+](c2ccccc2)c2ccc(OCC(F)(F)S(=O)(=O)[O-])cc2)cc1 (stereo not shown) [Compound X-6] | 0.77 |
| O=C([N-]S(=O)(=O)C(F)(F)C(F)(F)C(F)(F)S(=O)(=O)[N-]C(=O)c1ccccc1[S+](c1ccccc1)c1ccccc1)c1ccccc1[I+]c1ccccc1 [Compound X-9] | 0.89 |
| COc1ccc([I+]c2cccc(C(=O)NS(=O)(=O)C(F)(F)C(F)(F)C(F)(F)S(=O)(=O)[N-]S(=O)(=O)C(F)(F)F)c2)cc1 [Compound X-11] | 10.26 |
| Cc1ccc([I+]c2ccc(C(=O)NS(=O)(=O)C(F)(F)C(F)(F)C(F)(F)S(=O)(=O)[N-]S(=O)(=O)C(F)(F)F)cc2)cc1 [Compound X-12] | 5.67 |
| O=C([N-]C(=O)c1ccccc1[I+]c1ccccc1)c1ccc([I+]c2ccc(OS(=O)(=O)C(F)(F)C(F)(F)C(F)(F)S(=O)(=O)[O-])cc2)cc1 [Compound X-16] | 12.11 |
